What all share (type): cell-based, Zymomonas mobilis
In test [1] the test system is ZW658 strain. Description: Flask fermentation of ZW658 on high concentration glucose or xylose alone with sorbitol. The note with it: for OD600: after 48 hours, 33° C.; for ethanol production rate: 20 mM sorbitol vs no sorbitol. The protocol:
(§1) Approximately 1 ml of well mixed sample was obtained from flask or fermentor. First the sample absorbance was measured directly with a spectrophotometer (Amersham Biosciences Ultrospec 3300pro, GE Healthcare, Piscataway, N.J., USA). If the reading was lower than 0.6 unit, no dilution was needed. If the reading was higher than 0.6 unit, the sample was diluted with culture medium until the actual reading was in the range of 0.1 to 0.6 unit. The original OD was calculated from the dilution ratio and the actual reading.
(§2) The analysis of sugars, acetate, ethanol, and other by-products was done with an Agilent 1100 series HPLC and Agilent ChemStation software for LC 3D. The column was BioRad Aminex HPX-87H(HPLC Organic Analysis Column 125-0140) with BioRad Micro-Guard Cartridge Cation-H (125-0129). The operating conditions were:
(§3) Glycerol stock of seed frozen at −80° C. was thawed, then inoculated into sterile culture tubes with mixture of 60 g/L glucose, 20 g/L xylose, 10 g/L yeast extract (YE), 10 g/L KH2PO4, 2 g/L (NH4)2SO4, and 1 g/L MgSO4. Initial pH was adjusted to 5.5 with 4 N KOH. This revival culture was grown statically overnight at 37° C. It was transferred into shake flasks with 75 g/L glucose, 25 g/L xylose, 10 g/L yeast extract (YE), 10 g/L KH2PO4, 2 g/L (NH4)2SO4, and 1 g/L MgSO4. Initial pH was adjusted to 5.5 with 4 N KOH. Growth was monitored by measuring OD600. When the OD reached approximately 5, a certain volume of the seed was withdrawn into a sterile syringe for inoculation.
In four sterilized 125 ml Erlenmeyer culture flasks (Cat. No. 30180-036, VWR International, USA), 10 ml of ZW658 strain seed culture at OD600 of approximately 5 was inoculated into each flask with 100 ml of aqueous solution containing 10 g/L yeast extract (YE), 2 g/L KH2PO4, 4 g/L KHCO3. Before inoculation, the first flask also contained 200 g/L glucose and 20 mM sorbitol, comparing to the second flask with 200 g/L glucose only. The third flask contained 200 g/L xylose and 20 mM sorbitol, comparing to the fourth flask with 200 g/L xylose only. After inoculation, sugar concentrations were diluted to about 180 g/L. Initial pH was adjusted to 5.5 with 4 NH3PO4 solution. Mixing speed was set at 150 rpm. Fermentation was conducted at 33° C. and pH was not controlled. Samples were taken periodically. Samples were filtered through 0.22 micron filters, and the filtrates were analyzed by HPLC as described in General Methods for compounds including glucose, xylose, ethanol, and xylitol. Samples were diluted with medium (as described in General Methods) and the OD600 was measured to monitor cell growth. […] After 48 hours, the OD600 were 9.94, 6.46, 5.37 and 5.45, respectively, for the first, second, third, and fourth flask.

Test [2] relates to ZW658 strain. Kind of test: 1-liter fermentor, ZW658 on glucose and xylose in the presence of sorbitol and acetate. The following applies: 5.8 g/L acetate, 10 mM sorbitol. The protocol: as §1, §2, §3
In a sterilized 1-liter fermentor (BIOSTAT® B-DCU system, Sartorius BBI System Inc., Bethlehem, Pa., USA), 50 ml of ZW658 strain seed culture at OD600 of approximately 5 was inoculated into 450 ml of aqueous solution containing sugars and medium. The final mixed broth contained 99.0 g/L glucose, 82.7 g/L xylose, 5.8 g/L acetate (in the form of potassium acetate), 10 g/L yeast extract (YE), 2 g/L KH2PO4, and 10 mM sorbitol. pH was adjusted to 5.5 with 4 N KOH solution. Mixing speed was set at 150 rpm. Fermentation was conducted at 33° C. and pH 5.5. Samples were taken periodically. Samples were filtered through 0.22 micron filters, and the filtrates were analyzed by HPLC as described in General Methods for compounds including glucose, xylose, ethanol, and acetate. Samples were also diluted with medium (as described in General Methods) and the OD600 was measured to monitor cell growth.

Test [3] has as its system ZW658 strain. Description: Flask fermentation of ZW658 on glucose and xylose with various polyols. The following applies: 10 mM polyol. As to the method:
as §1, §2, §3
In five sterilized 125 ml Erlenmeyer culture flasks (Cat. No. 30180-036, VWR International, USA), 10 ml of ZW658 strain seed culture at OD600 of approximately 5 was inoculated into each flask with 100 ml of aqueous solution containing 100 g/L glucose, 80 g/L xylose, 10 g/L yeast extract (YE), 2 g/L KH2PO4, 1 g/L MgSO4.7H2O, and 4 g/L KHCO3, and 10 mM of one of the following polyols: erythritol, sorbitol, mannitol, maltitol, or lactitol. After inoculation, the total sugar concentration was about 160 g/L due to dilution by the seed culture. Initial pH was adjusted to 5.5 with 4 N H3PO4 solution. Mixing speed was set at 150 rpm. Fermentation was conducted at 33° C. and pH was not controlled. Samples were taken periodically. Samples were filtered through 0.22 micron filters, and the filtrates were analyzed by HPLC as described in General Methods for compounds including glucose, xylose, ethanol, xylitol, and acetic acid. Samples were diluted with medium (as described in General Methods) and the OD600 was measured to monitor cell growth. […] Cultures with sorbitol or mannitol grew faster and better. After 32 hours, the OD600 were 13.94 and 13.92, respectively, for cultures supplemented with sorbitol or mannitol; meanwhile, the OD600 were 9.48, 9.02, and 9.24, respectively, for cultures supplemented with erythritol, maltitol, or lactitol. […] The presence of sorbitol or mannitol allowed more xylose utilization, without production of xylitol.

For `OC[C@@H](O)[C@@H](O)[C@H](O)[C@@H](O)CO` [sorbitol], the OD600 in the test with ZW658 strain [1] (200 g/L glucose (about 180 g/L after inoculation), 20 mM sorbitol) was 9.94; in the test on ZW658 strain [1] (200 g/L xylose (about 180 g/L after inoculation), 20 mM sorbitol), 5.37; with ZW658 strain [3] (after 32 hours, total sugar about 160 g/L, 33° C.), 13.94. The ethanol production rate result is “more rapid” with ZW658 strain [1] (glucose culture); “at the same rate with and without sorbitol” with ZW658 strain [1] (xylose only culture). Also, in the test with ZW658 strain [1] (glucose only or xylose only cultures, 20 mM sorbitol), the xylitol production entry is reported as “No xylitol was produced”. The effect on growth result in the test on ZW658 strain [1] (high concentration glucose culture, 20 mM sorbitol) is on record as “significantly stimulated growth”; in the test on ZW658 strain [1] (high concentration xylose culture, 20 mM sorbitol), “almost no effect on growth”. The “by product xylitol concentration” value with ZW658 strain [2] (after 63.75 hours (stationary phase)) was 3.55 g/L. For the same molecule, the “OD600 cells grew to” value with ZW658 strain [2] (after 63.75 hours) was 6.4. Besides, the ethanol concentration in the test on ZW658 strain [2] (after 63.75 hours) came out at 70.0 g/L. The xylose concentration in the test with ZW658 strain [2] (after 63.75 hours) is recorded as 29.6 g/L. Further, in the test on ZW658 strain [2] (after 63.75 hours, 99.0 g/L glucose, 82.7 g/L xylose, 33° C., pH 5.5), the glucose concentration is given as 0 g/L. Further, the ethanol production result in the test on ZW658 strain [3] (mixed sugars) is “ethanol production was also better”. Moreover, the xylose utilization entry in the test with ZW658 strain [3] (mixed sugars) is listed as “More xylose was utilized”.

(Values after patent US7629156B2, “Ethanol production in fermentation of mixed sugars containing xylose” (E.I. du Pont de Nemours and Company, priority 2006, dated 2009).)
